According to patent US20260297081A1, “COMPOUNDS AND METHODS OF TREATING CANCERS” (Cullgen Inc., priority 2023, published 2026):

Molecular target: CDK4 (Homo sapiens, UniProt P11802+Q16531)
Experiment: HiBiT detection of HiBiT-tagged CDK4 protein level in MCF7 cells, 16 hours (Table 8)
Type: cell-based
Parameters: expressed in transfected cells; host or cells: MCF7
Conditions: MCF7 cells stably expressing HiBiT tagged target proteins; for activity at 0.01 µM: 10 nM, read-out: % CDK4 Relative Level (10 nM); for activity at 0.1 µM: 100 nM, read-out: % CDK4 Relative Level (100 nM)
Experimental: HiBiT detection system quantitatively measures total amounts of HiBiT-tagged proteins using a luminescent based method. MCF7 cells stably expressing HiBiT tagged target proteins were treated with heterobifunctional compounds at indicated concentrations for 16 hours, then lysed with Nano-Glo HiBiT Lytic detection reagents.

Chain of CDK4 (P11802 whole entry): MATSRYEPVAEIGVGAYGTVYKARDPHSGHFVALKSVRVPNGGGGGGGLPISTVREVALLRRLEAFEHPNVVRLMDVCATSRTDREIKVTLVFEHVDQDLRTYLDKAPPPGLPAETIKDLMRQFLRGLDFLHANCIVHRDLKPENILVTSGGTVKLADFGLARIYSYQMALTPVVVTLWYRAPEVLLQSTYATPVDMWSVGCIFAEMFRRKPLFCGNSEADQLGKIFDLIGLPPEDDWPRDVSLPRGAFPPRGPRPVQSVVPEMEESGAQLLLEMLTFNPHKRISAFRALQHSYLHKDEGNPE
Chain of CDK4 (P24385 whole entry partner): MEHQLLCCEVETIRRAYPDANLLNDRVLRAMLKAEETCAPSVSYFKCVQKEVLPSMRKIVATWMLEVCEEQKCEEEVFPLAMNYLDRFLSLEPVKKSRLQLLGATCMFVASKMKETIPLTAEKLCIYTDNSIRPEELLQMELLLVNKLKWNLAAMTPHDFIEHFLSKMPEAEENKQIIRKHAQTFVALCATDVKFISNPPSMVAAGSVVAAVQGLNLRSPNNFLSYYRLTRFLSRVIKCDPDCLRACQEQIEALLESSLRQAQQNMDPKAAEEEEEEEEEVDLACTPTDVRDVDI
Chain of CDK4 (Q16531 2-1140 limits assumed): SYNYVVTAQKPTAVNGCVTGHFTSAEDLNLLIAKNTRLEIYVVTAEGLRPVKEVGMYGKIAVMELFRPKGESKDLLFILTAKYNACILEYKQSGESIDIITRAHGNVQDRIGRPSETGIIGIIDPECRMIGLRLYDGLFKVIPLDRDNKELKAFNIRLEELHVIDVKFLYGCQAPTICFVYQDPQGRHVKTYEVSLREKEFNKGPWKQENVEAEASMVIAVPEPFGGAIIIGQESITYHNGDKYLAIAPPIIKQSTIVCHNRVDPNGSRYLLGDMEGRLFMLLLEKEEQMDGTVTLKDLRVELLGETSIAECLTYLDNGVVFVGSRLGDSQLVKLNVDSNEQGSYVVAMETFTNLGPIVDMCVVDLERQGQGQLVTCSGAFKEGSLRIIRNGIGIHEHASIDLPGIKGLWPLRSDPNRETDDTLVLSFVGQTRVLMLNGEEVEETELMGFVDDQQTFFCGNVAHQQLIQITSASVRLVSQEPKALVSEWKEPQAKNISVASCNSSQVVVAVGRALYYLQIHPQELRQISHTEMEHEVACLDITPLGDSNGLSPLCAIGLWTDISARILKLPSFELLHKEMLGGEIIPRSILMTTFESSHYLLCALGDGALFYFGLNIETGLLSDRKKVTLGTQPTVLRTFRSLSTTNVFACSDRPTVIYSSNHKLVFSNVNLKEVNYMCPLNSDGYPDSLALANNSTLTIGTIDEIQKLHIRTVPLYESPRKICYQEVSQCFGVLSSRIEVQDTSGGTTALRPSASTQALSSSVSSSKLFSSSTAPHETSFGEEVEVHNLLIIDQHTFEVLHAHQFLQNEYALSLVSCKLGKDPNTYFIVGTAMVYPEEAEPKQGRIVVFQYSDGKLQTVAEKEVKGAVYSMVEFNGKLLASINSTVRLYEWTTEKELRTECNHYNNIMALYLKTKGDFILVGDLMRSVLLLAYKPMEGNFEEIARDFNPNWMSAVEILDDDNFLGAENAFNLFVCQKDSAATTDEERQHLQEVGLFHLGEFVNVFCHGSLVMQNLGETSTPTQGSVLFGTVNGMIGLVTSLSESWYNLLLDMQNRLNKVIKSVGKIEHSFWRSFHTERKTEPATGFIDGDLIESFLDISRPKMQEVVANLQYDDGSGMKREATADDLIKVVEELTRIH

SMILES	activity at 0.01 µM [%]	activity at 0.1 µM [%]
CNc1ccc(C(=O)Nc2ccc(N(C)C)nn2)c(NCCOCCC(=O)N2CCN(c3ccc(Nc4ncc(F)c(-c5cc(F)c6nc(C)n(C(C)C)c6c5)n4)nc3)CC2)n1 [CPD-654, N-(6-(dimethylamino)pyridazin-3-yl)-2-((2-(3-(4-(6-((5-fluoro-4-(4-fluoro-1-isopropyl-2-methyl-1H-benzo[d]imidazol-6-yl)pyrimidin-2-yl)amino)pyridin-3-yl)piperazin-1-yl)-3-oxopropoxy)ethyl)amino)-6-(methylamino)nicotinamide]	> 85	> 85
CNc1ccc(C(=O)Nc2ccc(N(C)C)nn2)c(NCCOCCOCCC(=O)N2CCN(c3ccc(Nc4ncc(F)c(-c5cc(F)c6nc(C)n(C(C)C)c6c5)n4)nc3)CC2)n1 [CPD-655, N-(6-(dimethylamino)pyridazin-3-yl)-2-((2-(2-(3-(4-(6-((5-fluoro-4-(4-fluoro-1-isopropyl-2-methyl-1H-benzo[d]imidazol-6-yl)pyrimidin-2-yl)amino)pyridin-3-yl)piperazin-1-yl)-3-oxopropoxy)ethoxy)ethyl)amino)-6-(methylamino)nicotinamide]	> 85	> 85
CNc1ccc(C(=O)Nc2ccc(N(C)C)nn2)c(NCC(=O)N2CCN(Cc3ccc(Nc4ncc(F)c(-c5cc(F)c6nc(C)n(C(C)C)c6c5)n4)nc3)CC2)n1 [CPD-656, N-(6-(dimethylamino)pyridazin-3-yl)-2-((2-(4-((6-((5-fluoro-4-(4-fluoro-1-isopropyl-2-methyl-1H-benzo[d]imidazol-6-yl)pyrimidin-2-yl)amino)pyridin-3-yl)methyl)piperazin-1-yl)-2-oxoethyl)amino)-6-(methylamino)nicotinamide]	> 85	> 85
CNc1ccc(C(=O)Nc2ccc(N(C)C)nn2)c(NCCNC(=O)CN2CCN(c3ccc(Nc4ncc(F)c(-c5cc(F)c6nc(C)n(C(C)C)c6c5)n4)nc3)CC2)n1 [CPD-658, N-(6-(dimethylamino)pyridazin-3-yl)-2-((2-(2-(4-(6-((5-fluoro-4-(4-fluoro-1-isopropyl-2-methyl-1H-benzo[d]imidazol-6-yl)pyrimidin-2-yl)amino)pyridin-3-yl)piperazin-1-yl)acetamido)ethyl)amino)-6-(methylamino)nicotinamide]	> 85	> 85
CNc1ccc(C(=O)Nc2ccc(N(C)C)nn2)c(NCCCNC(=O)CN2CCN(c3ccc(Nc4ncc(F)c(-c5cc(F)c6nc(C)n(C(C)C)c6c5)n4)nc3)CC2)n1 [CPD-659, N-(6-(dimethylamino)pyridazin-3-yl)-2-((3-(2-(4-(6-((5-fluoro-4-(4-fluoro-1-isopropyl-2-methyl-1H-benzo[d]imidazol-6-yl)pyrimidin-2-yl)amino)pyridin-3-yl)piperazin-1-yl)acetamido)propyl)amino)-6-(methylamino)nicotinamide]	> 85	> 85
CNc1ccc(C(=O)Nc2ccc(N(C)C)nn2)c(NCCCCNC(=O)CN2CCN(c3ccc(Nc4ncc(F)c(-c5cc(F)c6nc(C)n(C(C)C)c6c5)n4)nc3)CC2)n1 [CPD-660, N-(6-(dimethylamino)pyridazin-3-yl)-2-((4-(2-(4-(6-((5-fluoro-4-(4-fluoro-1-isopropyl-2-methyl-1H-benzo[d]imidazol-6-yl)pyrimidin-2-yl)amino)pyridin-3-yl)piperazin-1-yl)acetamido)butyl)amino)-6-(methylamino)nicotinamide]	> 85	> 85
CNc1ccc(C(=O)Nc2ccc(N(C)C)nn2)c(NCCCCCNC(=O)CN2CCN(c3ccc(Nc4ncc(F)c(-c5cc(F)c6nc(C)n(C(C)C)c6c5)n4)nc3)CC2)n1 [CPD-661, N-(6-(dimethylamino)pyridazin-3-yl)-2-((5-(2-(4-(6-((5-fluoro-4-(4-fluoro-1-isopropyl-2-methyl-1H-benzo[d]imidazol-6-yl)pyrimidin-2-yl)amino)pyridin-3-yl)piperazin-1-yl)acetamido)pentyl)amino)-6-(methylamino)nicotinamide]	> 85	> 85
CNc1ccc(C(=O)Nc2ccc(N(C)C)nn2)c(NCCCCCCNC(=O)CN2CCN(c3ccc(Nc4ncc(F)c(-c5cc(F)c6nc(C)n(C(C)C)c6c5)n4)nc3)CC2)n1 [CPD-662, N-(6-(dimethylamino)pyridazin-3-yl)-2-((6-(2-(4-(6-((5-fluoro-4-(4-fluoro-1-isopropyl-2-methyl-1H-benzo[d]imidazol-6-yl)pyrimidin-2-yl)amino)pyridin-3-yl)piperazin-1-yl)acetamido)hexyl)amino)-6-(methylamino)nicotinamide]	> 85	> 85
CNc1ccc(C(=O)Nc2ccc(N(C)C)nn2)c(NCCCCCCCNC(=O)CN2CCN(c3ccc(Nc4ncc(F)c(-c5cc(F)c6nc(C)n(C(C)C)c6c5)n4)nc3)CC2)n1 [CPD-663, N-(6-(dimethylamino)pyridazin-3-yl)-2-((7-(2-(4-(6-((5-fluoro-4-(4-fluoro-1-isopropyl-2-methyl-1H-benzo[d]imidazol-6-yl)pyrimidin-2-yl)amino)pyridin-3-yl)piperazin-1-yl)acetamido)heptyl)amino)-6-(methylamino)nicotinamide]	> 85	55 to 85
CNc1ccc(C(=O)Nc2ccc(N(C)C)nn2)c(NCCCCCCCCNC(=O)CN2CCN(c3ccc(Nc4ncc(F)c(-c5cc(F)c6nc(C)n(C(C)C)c6c5)n4)nc3)CC2)n1 [CPD-664, N-(6-(dimethylamino)pyridazin-3-yl)-2-((8-(2-(4-(6-((5-fluoro-4-(4-fluoro-1-isopropyl-2-methyl-1H-benzo[d]imidazol-6-yl)pyrimidin-2-yl)amino)pyridin-3-yl)piperazin-1-yl)acetamido)octyl)amino)-6-(methylamino)nicotinamide]	> 85	> 85
CNc1ccc(C(=O)Nc2ccc(N(C)C)nn2)c(NCCOCCNC(=O)CN2CCN(c3ccc(Nc4ncc(F)c(-c5cc(F)c6nc(C)n(C(C)C)c6c5)n4)nc3)CC2)n1 [CPD-665, N-(6-(dimethylamino)pyridazin-3-yl)-2-((2-(2-(2-(4-(6-((5-fluoro-4-(4-fluoro-1-isopropyl-2-methyl-1H-benzo[d]imidazol-6-yl)pyrimidin-2-yl)amino)pyridin-3-yl)piperazin-1-yl)acetamido)ethoxy)ethyl)amino)-6-(methylamino)nicotinamide]	55 to 85	> 85
CNc1ccc(C(=O)Nc2ccc(N(C)C)nn2)c(NCCC(=O)NC2CCC(Nc3ncc4ccc(=O)n(C5CCCC5)c4n3)CC2)n1 (stereo not drawn) [CPD-666, 2-((3-((4-((8-cyclopentyl-7-oxo-7,8-dihydropyrido[2,3-d]pyrimidin-2-yl)amino)cyclohexyl)amino)-3-oxopropyl)amino)-N-(6-(dimethylamino)pyridazin-3-yl)-6-(methylamino)nicotinamide]	> 85	> 85
CNc1ccc(C(=O)Nc2ccc(N(C)C)nn2)c(NCCCC(=O)NC2CCC(Nc3ncc4ccc(=O)n(C5CCCC5)c4n3)CC2)n1 (stereo not drawn) [CPD-667, 2-((4-((4-((8-cyclopentyl-7-oxo-7,8-dihydropyrido[2,3-d]pyrimidin-2-yl)amino)cyclohexyl)amino)-4-oxobutyl)amino)-N-(6-(dimethylamino)pyridazin-3-yl)-6-(methylamino)nicotinamide]	> 85	> 85
CNc1ccc(C(=O)Nc2ccc(N(C)C)nn2)c(NCCCCC(=O)NC2CCC(Nc3ncc4ccc(=O)n(C5CCCC5)c4n3)CC2)n1 (stereo not drawn) [CPD-668, 2-((5-((4-((8-cyclopentyl-7-oxo-7,8-dihydropyrido[2,3-d]pyrimidin-2-yl)amino)cyclohexyl)amino)-5-oxopentyl)amino)-N-(6-(dimethylamino)pyridazin-3-yl)-6-(methylamino)nicotinamide]	> 85	> 85
CNc1ccc(C(=O)Nc2ccc(N(C)C)nn2)c(NCCCCCC(=O)NC2CCC(Nc3ncc4ccc(=O)n(C5CCCC5)c4n3)CC2)n1 (stereo not drawn) [CPD-669, 2-((6-((4-((8-cyclopentyl-7-oxo-7,8-dihydropyrido[2,3-d]pyrimidin-2-yl)amino)cyclohexyl)amino)-6-oxohexyl)amino)-N-(6-(dimethylamino)pyridazin-3-yl)-6-(methylamino)nicotinamide]	> 85	> 85
CNc1ccc(C(=O)Nc2ccc(N(C)C)nn2)c(NCCCCCCC(=O)NC2CCC(Nc3ncc4ccc(=O)n(C5CCCC5)c4n3)CC2)n1 (stereo not drawn) [CPD-670, 2-((7-((4-((8-cyclopentyl-7-oxo-7,8-dihydropyrido[2,3-d]pyrimidin-2-yl)amino)cyclohexyl)amino)-7-oxoheptyl)amino)-N-(6-(dimethylamino)pyridazin-3-yl)-6-(methylamino)nicotinamide]	> 85	> 85
CNc1ccc(C(=O)Nc2ccc(N(C)C)nn2)c(NCCCCCCCC(=O)NC2CCC(Nc3ncc4ccc(=O)n(C5CCCC5)c4n3)CC2)n1 (stereo not drawn) [CPD-671, 2-((8-((4-((8-cyclopentyl-7-oxo-7,8-dihydropyrido[2,3-d]pyrimidin-2-yl)amino)cyclohexyl)amino)-8-oxooctyl)amino)-N-(6-(dimethylamino)pyridazin-3-yl)-6-(methylamino)nicotinamide]	> 85	> 85
CNc1ccc(C(=O)Nc2ccc(N(C)C)nn2)c(NCCOCCC(=O)NC2CCC(Nc3ncc4ccc(=O)n(C5CCCC5)c4n3)CC2)n1 (stereo not drawn) [CPD-672, 2-((2-(3-((4-((8-cyclopentyl-7-oxo-7,8-dihydropyrido[2,3-d]pyrimidin-2-yl)amino)cyclohexyl)amino)-3-oxopropoxy)ethyl)amino)-N-(6-(dimethylamino)pyridazin-3-yl)-6-(methylamino)nicotinamide]	> 85	> 85
